Source: a melting point compilation (Tetko et al.)

Row | Compound | melting point
1 | NC(CO)c1ccc(Br)cc1 (stereo unspecified) | 89 to 91 °C
2 | CC(C)(C)OC(=O)NC(C(=O)O)C1CCCCC1 (stereo unspecified) | 163 to 165 °C
3 | CS(=O)(=O)Cc1noc(C(Cl)(Cl)Cl)n1 | 110 to 112 °C
4 | N#Cc1cccc(COc2ccc(N)cc2Cl)c1 | 112 to 114 °C
5 | O=C(O)c1cc(C=Cc2ccncc2)nc2ccc(Br)cc12 | 309 to 311 °C
6 | C=CS(=O)(=O)c1ccc([N+](=O)[O-])cc1 | 112 to 114 °C
7 | O=C(O)CCc1ncc(-c2ccc(F)cc2F)o1 | 169 to 171 °C
8 | COc1cc2c(cc1C(=O)CCl)C(=O)CO2 | 176 to 178 °C
9 | Cc1cc(-n2nccc2N)ncn1 | 59 to 61 °C
10 | COc1ccc(C(=O)CCl)c(OC)c1 | 48 to 50 °C
11 | NC(=NO)c1ccc(COc2ccccc2F)cc1 | 135 to 137 °C
12 | CC(C)C1(C)NC(=O)NC1=O (stereo unspecified) | 176 to 178 °C
13 | CNc1ccc(Cl)cc1[N+](=O)[O-] | 106 to 108 °C
14 | Nc1cnccc1-c1cccc(F)c1 | 66 to 68 °C
15 | COc1ccc(C=C(CC(=O)O)c2nc3ccccc3s2)cc1 | 154 to 156 °C
16 | CC(C)(C)c1ccc(/C=C/c2cc(C(=O)O)c3cc(Br)ccc3n2)cc1 | 319 to 321 °C
17 | O=Cc1ccc(Br)c2cccnc12 | 119 to 121 °C
18 | Cc1noc(C)c1S(=O)(=O)N1CCC(C(=O)O)CC1 | 210 to 215 °C
19 | CN1CCN(S(=O)(=O)c2ccc(NN)nc2)CC1 | 168 to 170 °C

Row | Compound | melting point
20 | CC(C)c1nccc(O)n1 | 239 to 241 °C
21 | Nc1cccc(C(=O)Nc2ccccn2)c1 | 111 to 113 °C
22 | Cc1ccc(NC(=O)C(C)C)cc1N | 160 to 162 °C
23 | COc1ccc(Cn2nccc2N)c(OC)c1OC | 71 to 75 °C
24 | NCc1cc2ccccc2[nH]1 | 71 to 73 °C
25 | CN1CCN(C(=O)CC#N)CC1 | 118 to 120 °C
26 | CSc1ncc(C(N)=O)c(N)n1 | 250 to 252 °C
27 | Nc1cccc(OCCc2ccccc2)c1 | 139 to 141 °C
28 | N#Cc1ccccc1NC(=O)c1ccccn1 | 136 to 138 °C
29 | COCc1ccccc1CNC(=O)CCl | 51 to 53 °C
30 | O=C(CCl)Nc1ccc(Cl)cn1 | 142 to 144 °C
31 | C#CCNC(=O)Nc1ccccc1[N+](=O)[O-] | 190 to 192 °C
32 | COc1ccc2cc[nH]c(=O)c2c1 | 201 to 203 °C
33 | CC(C)(C)OC(=O)NCCCCC(=O)O | 43 to 45 °C
34 | Cc1ccc(NCCC#N)cc1 | 110 to 112 °C
35 | O=S(=O)(Nc1nc2ccccc2nc1Cl)c1ccc(F)cc1 | 181 to 183 °C
36 | O=C(CCl)N1CCN(c2ccc([N+](=O)[O-])cc2)CC1 | 129 to 131 °C
37 | Sc1nccn1Cc1ccccc1 | 146 to 148 °C
38 | CCOC(=O)c1ccc(-c2ccc(C=O)o2)cc1 | 110 to 112 °C

Row | Compound | melting point
39 | CCCn1cc(C(=O)O)c2ccccc21 | 155 to 157 °C
40 | CCCc1nnc(S)n1CC(=O)O | 226 to 228 °C
41 | Fc1ccc(-c2nnc3cc(Cl)ncn23)c(F)c1 | 170 to 172 °C
42 | Fc1ccccc1-c1nnc2ccc(Cl)nn12 | 164 to 166 °C
43 | CC(C)n1nnc(C(=O)O)c1C(F)(F)F | 99 to 101 °C
44 | NS(=O)(=O)c1cnc(Cl)s1 | 128 to 130 °C
45 | Nc1nc2c(Cl)c(Cl)ccc2s1 | 129 to 131 °C
46 | O=C(CCl)Nc1ccc(OCc2ccccc2)cc1 | 118 to 120 °C
47 | O=C(CNCc1cccnc1)Nc1ccc(Cl)cc1 | 81 to 83 °C
48 | CC(=O)N(C)CCCC(=O)O | 98 to 100 °C
49 | COC(=O)CNS(=O)(=O)c1ccc(N)cc1 | 78 to 80 °C
50 | N#CCCSc1ccc(C(F)(F)F)cc1N | 58 to 60 °C
51 | NCCC(=O)Nc1ccc(C(N)=O)c(Cl)c1 | 264 to 266 °C
52 | CN(CC(=O)O)c1ccc(Cl)cn1 | 135 to 137 °C
53 | CS(=O)(=O)Nc1ccc(Cl)c(N)c1 | 156 to 158 °C
54 | CCOC(=O)CNCC(N)=O | 70 to 72 °C
55 | Nc1nncc(-c2ccc(OC(F)F)cc2)n1 | 223 to 225 °C
56 | CC(C)CNC(N)=O | 134 to 138 °C
